In patent US12502388B2, “Lanthionine synthetase C-like 2-based therapeutics” (NImmune Biopharma, Inc., priority 2014, dated 2025):
“Also recorded” adds a separate entry of the source.

Experiments:
LANCL2 = target: T1, LANCL2 (Homo sapiens, UniProt Q9NS86); assay: Surface plasmon resonance (BIACORE T200) binding to immobilized LANCL2; conditions: for Kd: unit inferred, read-out: SPR KD value
T1 sequence (Q9NS86 1-450): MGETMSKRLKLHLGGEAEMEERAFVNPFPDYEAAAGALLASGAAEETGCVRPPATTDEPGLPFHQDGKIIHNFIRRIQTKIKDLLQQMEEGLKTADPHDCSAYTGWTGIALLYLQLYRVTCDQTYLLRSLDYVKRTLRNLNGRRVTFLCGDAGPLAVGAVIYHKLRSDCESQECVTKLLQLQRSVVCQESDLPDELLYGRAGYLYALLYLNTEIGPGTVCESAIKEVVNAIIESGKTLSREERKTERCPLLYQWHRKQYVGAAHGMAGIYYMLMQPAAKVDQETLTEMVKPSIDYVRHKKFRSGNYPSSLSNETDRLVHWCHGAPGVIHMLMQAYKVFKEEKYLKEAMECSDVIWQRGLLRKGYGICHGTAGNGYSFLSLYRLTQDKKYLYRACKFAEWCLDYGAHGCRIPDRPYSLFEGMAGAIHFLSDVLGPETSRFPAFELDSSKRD
Source text: Kinetic determination of LANCL2-small molecule interaction. […] Data were generated in a dose dependent (5-8 titration points) manner in triplicate, and analyzed to determine binding model (Langmuir, conformational shift, etc.), real time associated and disassociation constants, and equilibrium dissociation constant. SPR technology allowed validation of specific LANCL2-phytochemical interactions as well as to gain gold-standard insight into mechanism and rate of binding. The experiments were performed on carboxymethyldextran (CM5) sensor chips by covalently attaching LANCL2 to by amine coupling. Flow cells 1 and 2 of the sensor chip were activated for 720 sec at 10 μl/min with of 1:1 mixture of 0.1 M N-hydroxysuccinimide (NHS) and 0.5 M 1-ethyl-3-(−3-dimethylaminopropyl)-carbodiimide hydrochloride (EDC). Stock LANCL2 (0.41 mg/mL) was diluted to 8.2 μg/mL (1:50 dilution) in 10 mM sodium acetate, pH 5.0 and injected over the activated flow cell 2 surface for 1000 sec at a flow rate of 10 μl/min. After the capture of LANCL2 on flow cell 2 (11000 RU), surfaces of flow cells 1 and 2 were deactivated by injecting 1M ethanolamine for 720 sec at 10 μl/min. The running buffer was 25 mM MOPS containing 0.05% T-20 and 0.15 M NaCl, pH 6.5. […] Each sample was injected for 60 sec (contact time) followed by a dissociation time of 60 sec at a flow rate of 100 μL/min. A stabilization time of 180 sec was used before the next injection. Data was analyzed with BIACORE™ T200 Evaluation Software (version 1) to determine the affinity binding constant (KD) using a 1:1 binding model.
We immobilized purified recombinant LANCL2 protein on BIACORE™ sensor chips and injected small molecules over the protein surface using the microfluidic system of the instrument. Changes in the total mass on chip surface were measured, which corresponds to the small binding to the protein. […] These fast interactions are beyond the technical abilities of the instrument. Therefore, reliable association rate constant (ka) and dissociation rate constant (kd) were not determined. The equilibrium dissociation constant (KD) is commonly used to describe the affinity between a ligand and a protein, such as how tightly a ligand binds to a particular protein. Ligand-protein affinities are influenced by non-covalent intermolecular interactions between the two molecules such as hydrogen bonding, electrostatic interactions, hydrophobic and Van der Waals forces. By plotting the equilibrium binding level against the compound concentration, we were able to measure the steady state affinity (KD) for each interaction (FIG. 8, panels B and D).
In this case we also immobilized purified recombinant LANCL2 protein on BIACORE™ sensor chips and injected small molecules over the protein surface using the microfluidic system of the instrument. Changes in the total mass on chip surface were measured, which corresponds to the small binding to the protein. […] This longer binding can potentially impact the activation of the LANCL2 pathway by triggering more efficacious anti-inflammatory and anti-diabetic and other therapeutic responses.

[1] = test system: C57BL/6J mice with DSS colitis
Description: Mice. […] All mice were maintained in animal facilities.
DSS-induced colitis. Colitis was induced in C57BL/6J mice by administration of 5% (w/v) dextran sodium sulfate (DSS; molecular weight 42 kDa; ICN Biochemicals, Aurora, OH) added to the drinking water. Colonic inflammation was assessed 7 days after DSS treatment. […] DSS-treated, vehicle-treated mice, and iv. […] Twelve mice were included in each group.
Quantitative Real-Time PCR. […] Primers were designed using Oligo 6 software.

[2] = test system: mice infected with influenza virus
Description: Intranasal infection of mice with influenza virus. Mice were anesthetized with 2-5% isofluorane using a vaporizer station, and 50 μL of virus dilution at 10^3 TCID50 was administered through the nostrils (25 μL each one). Mice were then placed in their cages and watched for recovery of anesthesia.
This procedure caused no pain or distress.
Monitoring of mice and disease activity and weighing. Mice were monitored once daily after the infection (or every 4 hours if they developed severe clinical signs of disease equivalent to disease score 2) and were euthanized prior to the planned endpoint if they developed significant signs of illness as measured by weight loss (i.e., 25% gradual loss of initial body weight), dehydration, loss of mobility, guarding/protection of painful area, ruffled fur (piloerection). Mice were weighed once a day for the duration of the experiment.

[3] = test system: C57BL/6 mice fed a high-fat diet
[4] = test system: IL-10-/- mice with chronic colitis
[5] = test system: RAG2-/- mice transferred with naive CD4+ T cells
[6] = flow cytometry, wild-type vs LANCL2-/-
[7] = gene expression vs untreated mice
[8] = gene expression, dose-dependent
[9] = CD4+ T cells from LANCL2-/- donors

Source text for NOD mice: Mice. […] The mice were maintained in animal facilities.
(§1) Assessment of body weight and glucose tolerance.
Source text for db/db mice: Mice and dietary treatments. […] The mice were maintained in animal facilities.
as §1

SMILES: O=C1CC=C(/C=C/c2ccc(C(=O)O)o2)CC1 [BT-ABA-5a]
- binding to LANCL2 by SPR in words (LANCL2): strongly bind
- on and off rates in SPR sensorgrams (LANCL2): very fast to bind but not as fast as off; also recorded: slowest off rate

SMILES: O=C(Nc1ccc(NC(=O)c2cccc(-c3nc4ccccc4[nH]3)c2)cc1)c1cccc(-c2nc3ccccc3[nH]2)c1 [BT-6]
- binding to LANCL2 by SPR in words (LANCL2): strongly bind
- on and off rates in SPR sensorgrams (LANCL2): very fast to bind but not as fast as off

SMILES: O=C(c1cccc(-c2nc3ccccc3[nH]2)n1)N1CCN(C(=O)c2cccc(-c3nc4ccccc4[nH]3)n2)CC1 [BT-11]
- disease activity score ([1]; 5% DSS, 7-day challenge, oral BT-11 vs vehicle): significantly improved
- leukocytic infiltration, mucosal thickening and epithelial erosion, dose-response ([1]; 10 to 80 mg/Kg): decreased in mice with colitis as the dose of BT-11 was increased
- histopathological lesions of the colonic mucosa in LANCL2-/- mice ([1]; LANCL2-/- mice, vehicle or BT-11): the loss of LANCL2 completely abrogates the effect of BT-11
- upregulation of IL-10 secretion in colon and spleen ([1]; LANCL2 knockout mice): completely abrogated in LANCL2 knockout mice
- decrease of inflammation in the gut mucosa (leukocytic infiltration, epithelial erosion, mucosal thickening) ([1]; colonic histopathology): 5 times
- macroscopic lesions in spleen, MLNs and colon ([1]; day 7 post-challenge): significantly decreased
- colonic IL-10 expression by flow cytometry ([1]; dose-response study): follows dose-response dynamics
- FOXP3 expression in the MLN ([1]; dose-response study, flow cytometry): dose-dependent
- upregulation of MHC-II+ CD11c+ granulocytes ([1]; flow cytometry, colon, wild-type vs LANCL2-/-): LANCL2-dependent
- reduction of colonic TNFα expressing cells ([1]; flow cytometry, doses 10, 20, 40, 80 mg/Kg): significantly different at both 40 and 80 mg/Kg of BT-11, but not on lower doses
- reduction of MCP1 in colon and MLN [1, 6]: LANCL2-dependent
- secretion of TNFα in the colon [1, 6]: LANCL2-dependent
- colonic gene expression of IL-10 ([1]; mouse, in vivo): upregulated
- colonic gene expression of LANCL2 ([1]; mouse, in vivo): upregulated
- colonic gene expression of TNFα ([1]; mouse, in vivo): down-regulated
- macroscopic score in colon, MLN and spleen in LANCL2-/- mice ([1]; wild-type vs LANCL2-/- littermates): the loss of LANCL2 abrogated the decrease in macroscopic score
- recovery from colitis (disease activity index) in LANCL2-/- mice ([1]; wild-type vs LANCL2-/- mice): the loss of LANCL2 prevented the mice to recover
- glucose levels following glucose challenge (db/db mice; 0 to 265 minutes after IP glucose): fell toward normal levels more rapidly
- fasting blood glucose (db/db mice; 80 mg/Kg daily oral gavage, weeks 1 and 3): significantly decreased
- glucose prior to the IP glucose challenge (time 0) (db/db mice; 12-h fast): significantly decreases
- morbidity (mice losing over 15% of body weight) ([2]; 80 mg/Kg, from day 6 post-infection, vs vehicle): less morbidity
- clinical score for physical appearance ([2]; 40 and 80 mg/Kg): significantly reduced
- activity clinical score ([2]; from day 3, oral 80 or 40 mg/Kg daily): significantly reduced
- binding to LANCL2 by SPR in words (LANCL2): strongly bind
- on and off rates in SPR sensorgrams (LANCL2): very fast on rates and very fast off rates
- Kd (LANCL2): 6.3 µM
- fasting blood glucose (NOD mice; 12 h fasting, weeks 0-11, 80 mg/kg/d vs vehicle): significantly lower levels
- clinical histopathological lesions in the pancreas (NOD mice; vs vehicle): significantly reduces
- insulin levels in plasma (NOD mice; week 5): significantly increased levels
- normalization of blood glucose after IP glucose challenge ([3]; 2 g/Kg glucose IP after 12 h fasting): significantly faster
- F4/80+ CD11b+ pro-inflammatory macrophages in white adipose tissue ([3]; flow cytometry): significantly reduced
- pro-inflammatory granulocytes (GR1+Ly6chigh) in white adipose tissue ([3]; flow cytometry): significantly reduced
- expression of LANCL2 in WAT [3, 7]: higher expression levels
- mRNA level of MCP-1 in WAT [3, 7]: significantly lower mRNA levels
- mRNA level of TNFα in WAT [3, 7]: significantly lower mRNA levels
- fasting blood glucose ([3]; week 12 of high-fat feeding, vs vehicle): significantly decreased
- disease activity index scores, highest dose vs lower doses ([4]; 80 mg/Kg, from week 13 to end): significantly reduced the scores in comparison to those treated with either 20 or 40 mg/Kg
- macroscopic scores in spleen, MLNs and colon ([4]; 19 weeks, concentrations as low as 20 mg/Kg): greatly and significantly reduced
- disease activity index scores ([4]; 20, 40 and 80 mg/Kg vs vehicle): significantly decreased
- colonic histopathology (leukocytic infiltration, epithelial erosion, mucosal thickening) ([4]; H&E colon sections): significantly reduced inflammation
- FOXP3-expressing CD4+ T cells in MLN and spleen ([4]; flow cytometry): upregulation
- FOXP3-expressing CD4+ T cells in the colonic LP ([4]; flow cytometry): upregulation
- effector Th17 cells (RORγt) in the MLN ([4]; flow cytometry): downregulated
- percentage of F4/80+ macrophages in colonic lamina propria ([4]; flow cytometry): significantly decreased
- percentage of MHC-II+ CD11c+ dendritic cells in colonic lamina propria ([4]; flow cytometry): significantly decreased
- percentage of effector Th1 cells in colonic lamina propria ([4]; flow cytometry): significantly decreased
- Th1 cells in the spleen ([4]; flow cytometry, dose response): downregulation
- colonic expression of LANCL2 [4, 8]: upregulates
- colonic expression of TNFα [4, 8]: downregulates
- effects on disease activity and histopathology with PPARγ-/- donor CD4+ T cells ([5]; 80 mg/Kg): PPARγ independent
- macroscopic scores in spleen, MLNs, colon and ileum ([5]; 80 mg/Kg, 11 weeks): greatly and significantly reduced
- decrease in leukocytic infiltration, epithelial erosion and mucosal thickening in LANCL2-/- transferred recipients [5, 9]: greatly abrogated
- effect on disease activity index with LANCL2-/- donor cells [5, 9]: completely abrogated with the loss of LANCL2
- macroscopic scores with loss of LANCL2 ([5]; LANCL2-/- cells transferred, 80 mg/Kg): the loss of LANCL2 completely abrogated the effect of BT-11
- IFNγ levels in total CD45+ leukocytes in the colon ([5]; flow cytometry): decrease
- IL-10 in CD4+ T cells in the colonic mucosa ([5]; flow cytometry): promoting the expression
- expression of IFNγ in the CD45+ population in MLN and spleen ([5]; flow cytometry): decreased
- levels of FOXP3 and IL-10 in spleen and MLN ([5]; flow cytometry): increases
- regulatory CD4+ T cells (FOXP3) in the colonic mucosa ([5]; flow cytometry): upregulated
- infiltrating F4/80+ CD11b+ pro-inflammatory macrophages in the colon ([5]; flow cytometry, 11 weeks of treatment): significantly lower level
- weight loss ([5]; from 7 weeks until end, vs vehicle): significantly improved
- epithelial erosion in the colon ([5]; histopathology): significantly lower
- inflammation: leukocytic infiltration and mucosal thickening in colon and ileum ([5]; histopathology): significantly reduced inflammation
- disease activity index score ([5]; wild-type CD4+ T cells transferred, BT-11 vs vehicle): significantly reduced

SMILES: O=C(c1cccc(-c2nc3ccccc3[nH]2)n1)N1CCN(C(=O)c2cccc(-c3nc4ccccc4o3)n2)CC1 [BT-15]
- binding to LANCL2 by SPR in words (LANCL2): strongly bind
- on and off rates in SPR sensorgrams (LANCL2): very fast on rates and very fast off rates
- Kd (LANCL2): 11.4 µM
